Data reported in ChEMBL document CHEMBL1201861, “Genomics of Drug Sensitity in Cancer screening data, Wellcome Trust Sanger Institute”.

Legend:
Test in all cases: cells
Conditions in all cases: Homo sapiens
[1] = tested on: COLO-741; assay type: functional, cell-based
Description: SANGER: Inhibition of human COLO-741 cell growth in a cell viability assay.

[2] = tested on: COLO-824; assay type: functional, cell-based
Description: SANGER: Inhibition of human COLO-824 cell growth in a cell viability assay.

[3] = tested on: DMS-79; assay type: functional, cell-based;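 also: growth inhibition measured with a cell viability assay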
Description: SANGER: Inhibition of human DMS-79 cell growth in a cell viability assay.

[4] = tested on: DU-4475; assay type: functional, cell-based
Description: SANGER: Inhibition of human DU-4475 cell growth in a cell viability assay.

[5] = tested on: EC-GI-10; assay type: functional, cell-based
Description: SANGER: Inhibition of human EC-GI-10 cell growth in a cell viability assay.

[6] = tested on: ES4; assay type: functional, cell-based;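 also: growth inhibition of human ES4 cells, read out by a cell viability assay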
Description: SANGER: Inhibition of human ES4 cell growth in a cell viability assay.

[7] = tested on: ES6; assay type: functional, cell-based;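 also: growth inhibition of human ES6 cells, read out with a cell viability assay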
Description: SANGER: Inhibition of human ES6 cell growth in a cell viability assay.

[8] = tested on: ETK-1; assay type: functional, cell-based;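 also: growth inhibition of human ETK-1 cells, read out with a cell viability assay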
Description: SANGER: Inhibition of human ETK-1 cell growth in a cell viability assay.

[9] = tested on: EW-11; assay type: functional, cell-based;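 also: growth inhibition of human EW-11 cells, measured with a cell viability assay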
Description: SANGER: Inhibition of human EW-11 cell growth in a cell viability assay.

[10] = tested on: EW-13; assay type: functional, cell-based;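 also: growth inhibition of EW-13 cells, read out with a cell viability assay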
Description: SANGER: Inhibition of human EW-13 cell growth in a cell viability assay.

[11] = tested on: EW-16; assay type: functional, cell-based;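 also: growth inhibition of human EW-16 cells, read out as cell viability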
Description: SANGER: Inhibition of human EW-16 cell growth in a cell viability assay.

[12] = tested on: EW-24; assay type: functional, cell-based;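 also: human EW-24 cancer cell line, growth inhibition read out via a cell viability assay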
Description: SANGER: Inhibition of human EW-24 cell growth in a cell viability assay.

[13] = tested on: EW-3; assay type: functional, cell-based;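 also: cell viability assay read-out, IC50 reflects inhibition of growth of the EW-3 cells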
Description: SANGER: Inhibition of human EW-3 cell growth in a cell viability assay.

[14] = tested on: FTC-133; assay type: functional, cell-based
[15] = tested on: GI-1; assay type: functional, cell-based;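 also: growth inhibition of human GI-1 cells, measured with a cell viability readout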
Description: SANGER: Inhibition of human GI-1 cell growth in a cell viability assay.

[16] = tested on: HCE-T; assay type: functional, cell-based;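 also: cell viability assay read-out, reporting inhibition of HCE-T cell growth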
Description: SANGER: Inhibition of human HCE-T cell growth in a cell viability assay.

[17] = tested on: HEL; assay type: functional, cell-based;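 also: growth inhibition of HEL cells, read out with a cell viability assay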
Description: SANGER: Inhibition of human HEL cell growth in a cell viability assay.

[18] = tested on: HT1197; assay type: functional, cell-based, HT-1197
Description: SANGER: Inhibition of human HT-1197 cell growth in a cell viability assay.

[19] = tested on: KE-37; assay type: functional, cell-based;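 also: growth inhibition of KE-37 cells, read out with a cell viability assay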
Description: SANGER: Inhibition of human KE-37 cell growth in a cell viability assay.

[20] = tested on: KURAMOCHI; assay type: functional, cell-based;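 also: growth inhibition of KURAMOCHI cells, read out with a cell viability assay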
Description: SANGER: Inhibition of human KURAMOCHI cell growth in a cell viability assay.

[21] = tested on: KYSE-150 cell line; assay type: functional, cell-based;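 also: growth inhibition of human KYSE-150 cells, read out with a cell viability assay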
Description: SANGER: Inhibition of human KYSE-150 cell growth in a cell viability assay.

[22] = tested on: LB373-MEL-D; assay type: functional, cell-based;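 also: growth inhibition of the cell line, read out in a cell viability assay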
Description: SANGER: Inhibition of human LB373-MEL-D cell growth in a cell viability assay.

[23] = tested on: LNCaP-Clone-FGC; assay type: functional, cell-based
Description: SANGER: Inhibition of human LNCaP-Clone-FGC cell growth in a cell viability assay.

[24] = tested on: LS-123; assay type: functional, cell-based
Description: SANGER: Inhibition of human LS-123 cell growth in a cell viability assay.

[25] = tested on: LS-513; assay type: functional, cell-based
Description: SANGER: Inhibition of human LS-513 cell growth in a cell viability assay.

[26] = tested on: LU-139; assay type: functional, cell-based
Description: SANGER: Inhibition of human LU-139 cell growth in a cell viability assay.

[27] = tested on: MFH-ino; assay type: functional, cell-based;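 also: growth inhibition of human MFH-ino cells, read out by a cell viability assay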
Description: SANGER: Inhibition of human MFH-ino cell growth in a cell viability assay.

[28] = tested on: MIA PaCa-2; assay type: functional, cell-based;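 also: growth inhibition of MIA PaCa-2 cells, read out with a cell viability assay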
Description: SANGER: Inhibition of human MIA-PaCa-2 cell growth in a cell viability assay.

[29] = tested on: MKN-1; assay type: functional, cell-based;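 also: growth inhibition of human MKN1 cells, read out by a cell viability measurement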
Description: SANGER: Inhibition of human MKN1 cell growth in a cell viability assay.

[30] = tested on: ML-2; assay type: functional, cell-based;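 also: growth inhibition of ML-2 cells, measured with a cell viability readout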
Description: SANGER: Inhibition of human ML-2 cell growth in a cell viability assay.

[31] = tested on: MN-60; assay type: functional, cell-based;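 also: growth inhibition of the MN-60 cell line, determined with a cell viability assay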
Description: SANGER: Inhibition of human MN-60 cell growth in a cell viability assay.

[32] = tested on: MPP-89; assay type: functional, cell-based;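 also: growth inhibition of human MPP-89 cells, read out with a cell viability assay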
Description: SANGER: Inhibition of human MPP-89 cell growth in a cell viability assay.

[33] = tested on: MZ1-PC; assay type: functional, cell-based;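 also: cell viability assay measuring growth inhibition of human MZ1-PC cells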
Description: SANGER: Inhibition of human MZ1-PC cell growth in a cell viability assay.

[34] = tested on: MeWo; assay type: functional, cell-based;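 also: growth inhibition of MeWo cells, determined by a cell viability readout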
Description: SANGER: Inhibition of human Mewo cell growth in a cell viability assay.

[35] = tested on: NB5; assay type: functional, cell-based;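 also: growth inhibition of NB5 cells, read out as cell viability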
Description: SANGER: Inhibition of human NB5 cell growth in a cell viability assay.

[36] = tested on: NCI-H1299; assay type: functional, cell-based;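 also: growth inhibition of human NCI-H1299 cells, read out by a cell viability assay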
Description: SANGER: Inhibition of human NCI-H1299 cell growth in a cell viability assay.

[37] = tested on: NCI-H1304; assay type: functional, cell-based;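 also: growth inhibition of the cancer cell line, measured in a cell viability assay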
Description: SANGER: Inhibition of human NCI-H1304 cell growth in a cell viability assay.

[38] = tested on: NCI-H1648; assay type: functional, cell-based;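 also: cell viability assay measuring inhibition of NCI-H1648 cell growth, from the Sanger screening data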
Description: SANGER: Inhibition of human NCI-H1648 cell growth in a cell viability assay.

[39] = tested on: NCI-H446; assay type: functional, cell-based;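 also: growth inhibition of NCI-H446 cells determined by a cell viability assay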
Description: SANGER: Inhibition of human NCI-H446 cell growth in a cell viability assay.

[40] = tested on: SNU-5; assay type: functional, cell-based;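 also: cell viability readout used to measure growth inhibition in human NCI-SNU-5 cells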
Description: SANGER: Inhibition of human NCI-SNU-5 cell growth in a cell viability assay.

[41] = tested on: NOMO-1; assay type: functional, cell-based;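 also: growth inhibition of human NOMO-1 cells measured by a cell viability assay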
Description: SANGER: Inhibition of human NOMO-1 cell growth in a cell viability assay.

[42] = tested on: OCI-AML2; assay type: functional, cell-based;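 also: growth inhibition of OCI-AML2 cells, read out with a cell viability assay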
Description: SANGER: Inhibition of human OCI-AML2 cell growth in a cell viability assay.

[43] = tested on: OMC-1; assay type: functional, cell-based;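 also: growth inhibition of the OMC-1 cell line, measured by a cell viability assay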
Description: SANGER: Inhibition of human OMC-1 cell growth in a cell viability assay.

[44] = tested on: OS-RC-2; assay type: functional, cell-based;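 also: growth inhibition of human OS-RC-2 cells, measured by a cell viability assay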
Description: SANGER: Inhibition of human OS-RC-2 cell growth in a cell viability assay.

[45] = tested on: OVCAR-5; assay type: functional, cell-based;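 also: growth inhibition of human OVCAR-5 cells, read out with a cell viability assay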
Description: SANGER: Inhibition of human OVCAR-5 cell growth in a cell viability assay.

[46] = tested on: RS4-11; assay type: functional, cell-based;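 also: growth inhibition of RS4-11 cells, read out by a cell viability assay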
Description: SANGER: Inhibition of human RS4-11 cell growth in a cell viability assay.

[47] = tested on: SF-268; assay type: functional, cell-based;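 also: growth inhibition of SF-268 cells determined with a cell viability assay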
Description: SANGER: Inhibition of human SF268 cell growth in a cell viability assay.

[48] = tested on: SK-MEL-1; assay type: functional, cell-based;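 also: growth inhibition of human SK-MEL-1 cells, read out by a cell viability assay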
Description: SANGER: Inhibition of human SK-MEL-1 cell growth in a cell viability assay.

[49] = tested on: SK-OV-3; assay type: functional, cell-based;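 also: growth inhibition of SK-OV-3 human cells, read out with a cell viability assay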
Description: SANGER: Inhibition of human SK-OV-3 cell growth in a cell viability assay.

[50] = tested on: SK-UT-1; assay type: functional, cell-based;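 also: growth inhibition of SK-UT-1 cells, measured by a cell viability assay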
Description: SANGER: Inhibition of human SK-UT-1 cell growth in a cell viability assay.

[51] = tested on: SW 954; assay type: functional, cell-based;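 also: growth inhibition of SW954 human cancer cells, read out as cell viability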
Description: SANGER: Inhibition of human SW954 cell growth in a cell viability assay.

[52] = tested on: A498; assay type: functional, cell-based;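 also: growth inhibition of human A498 cells, read out with a cell viability assay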
Description: SANGER: Inhibition of human A498 cell growth in a cell viability assay.

[53] = tested on: AGS; assay type: functional, cell-based;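 also: growth inhibition of AGS cells, determined with a cell viability assay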
Description: SANGER: Inhibition of human AGS cell growth in a cell viability assay.

[54] = tested on: ATN-1; assay type: functional, cell-based;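 also: growth inhibition of human ATN-1 cells, read out with a cell viability assay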
Description: SANGER: Inhibition of human ATN-1 cell growth in a cell viability assay.

[55] = tested on: BB49-HNC; assay type: functional, cell-based;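 also: cell viability assay read-out, reported as inhibition of BB49-HNC cell growth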
Description: SANGER: Inhibition of human BB49-HNC cell growth in a cell viability assay.

[56] = tested on: BFTC-909; assay type: functional, cell-based
Description: SANGER: Inhibition of human BFTC-909 cell growth in a cell viability assay.

[57] = tested on: BT-474; assay type: functional, cell-based
Description: SANGER: Inhibition of human BT-474 cell growth in a cell viability assay.

[58] = tested on: C2BBe1; assay type: functional, cell-based;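 also: growth inhibition of C2BBe1 cells, read out through a viability assay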
Description: SANGER: Inhibition of human C2BBe1 cell growth in a cell viability assay.

[59] = tested on: C8166; assay type: functional, cell-based;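 also: growth inhibition of human C8166 cells measured by a cell viability assay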
Description: SANGER: Inhibition of human C8166 cell growth in a cell viability assay.

[60] = tested on: TE-6; assay type: functional, cell-based;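 also: growth inhibition of TE-6 cells, read out with a cell viability assay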
Description: SANGER: Inhibition of human TE-6 cell growth in a cell viability assay.

[61] = tested on: TK-10; assay type: functional, cell-based;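 also: growth inhibition of TK-10 cells, read out in a cell viability assay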
Description: SANGER: Inhibition of human TK10 cell growth in a cell viability assay.

[62] = tested on: VA-ES-BJ; assay type: functional, cell-based
Description: SANGER: Inhibition of human VA-ES-BJ cell growth in a cell viability assay.

[63] = tested on: no-10; assay type: functional, cell-based
Description: SANGER: Inhibition of human no-10 cell growth in a cell viability assay.

[64] = tested on: no-11; assay type: functional, cell-based
Description: SANGER: Inhibition of human no-11 cell growth in a cell viability assay.

[65] = tested on: CCRF-CEM; assay type: functional, cell-based
Description: SANGER: Inhibition of human CCRF-CEM cell growth in a cell viability assay.

Question: Which results are given for `COc1cc(Nc2c(C#N)cnc3cc(OCCCN4CCN(C)CC4)c(OC)cc23)c(Cl)cc1Cl` [BOSUTINIB]?
Answer: IC50 [1]: > 2 µM; IC50 [2]: > 2 µM; IC50 [3]: > 2 µM; IC50 [4]: > 2 µM; IC50 [5]: > 2 µM; IC50 [6]: 1.21 µM; IC50 [7]: > 2 µM; IC50 [8]: > 2 µM; IC50 [9]: > 2 µM; IC50 [10]: > 2 µM; IC50 [11]: 1.44 µM; IC50 [12]: > 2 µM; IC50 [13]: 0.559 µM; IC50 [14]: > 2 µM; IC50 [15]: > 2 µM; IC50 [16]: > 2 µM; IC50 [17]: > 2 µM; IC50 [18]: > 2 µM; IC50 [19]: 0.495 µM; IC50 [20]: > 2 µM; IC50 [21]: > 2 µM; IC50 [22]: > 2 µM; IC50 [23]: > 2 µM; IC50 [24]: > 2 µM; IC50 [25]: > 2 µM; IC50 [26]: > 2 µM; IC50 [27]: > 2 µM; IC50 [28]: > 2 µM; IC50 [29]: > 2 µM; IC50 [30]: > 2 µM; IC50 [31]: > 2 µM; IC50 [32]: > 2 µM; IC50 [33]: > 2 µM; IC50 [34]: > 2 µM; IC50 [35]: > 2 µM; IC50 [36]: > 2 µM; IC50 [37]: > 2 µM; IC50 [38]: > 2 µM; IC50 [39]: > 2 µM; IC50 [40]: > 2 µM; IC50 [41]: > 2 µM; IC50 [42]: > 2 µM; IC50 [43]: > 2 µM; IC50 [44]: > 2 µM; IC50 [45]: > 2 µM; IC50 [46]: 0.486 µM; IC50 [47]: > 2 µM; IC50 [48]: > 2 µM; IC50 [49]: > 2 µM; IC50 [50]: > 2 µM; IC50 [51]: 1.55 µM; IC50 [52]: 1.4 µM; IC50 [53]: > 2 µM; IC50 [54]: > 2 µM; IC50 [55]: > 2 µM; IC50 [56]: > 2 µM; IC50 [57]: > 2 µM; IC50 [58]: > 2 µM; IC50 [59]: > 2 µM; IC50 [60]: > 2 µM; IC50 [61]: > 2 µM; IC50 [62]: > 2 µM; IC50 [63]: > 2 µM; IC50 [64]: > 2 µM; IC50 [65]: > 2 µM

Question: What does the source list for `C[C@]12O[C@H](C[C@]1(O)CO)n1c3ccccc3c3c4c(c5c6ccccc6n2c5c31)CNC4=O` [LESTAURTINIB]?
Answer: IC50 [1]: 1.43 µM; IC50 [2]: > 2 µM; IC50 [3]: > 2 µM; IC50 [4]: 0.0978 µM; IC50 [5]: 0.535 µM; IC50 [6]: 0.128 µM; IC50 [7]: > 2 µM; IC50 [8]: 0.856 µM; IC50 [9]: 0.132 µM; IC50 [10]: > 2 µM; IC50 [11]: 0.226 µM; IC50 [12]: 0.266 µM; IC50 [13]: 0.125 µM; IC50 [14]: 0.158 µM; IC50 [15]: 0.546 µM; IC50 [16]: 0.179 µM; IC50 [17]: 0.204 µM; IC50 [18]: > 2 µM; IC50 [19]: 0.0168 µM; IC50 [20]: > 2 µM; IC50 [21]: 0.651 µM; IC50 [22]: > 2 µM; IC50 [23]: 0.353 µM; IC50 [24]: > 2 µM; IC50 [25]: 1.25 µM; IC50 [26]: > 2 µM; IC50 [27]: > 2 µM; IC50 [28]: 0.862 µM; IC50 [29]: > 2 µM; IC50 [30]: 0.195 µM; IC50 [31]: 0.372 µM; IC50 [32]: 1.04 µM; IC50 [33]: > 2 µM; IC50 [34]: 0.718 µM; IC50 [35]: 0.471 µM; IC50 [36]: 0.925 µM; IC50 [37]: > 2 µM; IC50 [38]: > 2 µM; IC50 [39]: 1.91 µM; IC50 [40]: > 2 µM; IC50 [41]: 0.149 µM; IC50 [42]: 1.07 µM; IC50 [43]: 1.18 µM; IC50 [44]: 0.566 µM; IC50 [45]: 0.504 µM; IC50 [46]: 0.0619 µM; IC50 [47]: 0.326 µM; IC50 [48]: > 2 µM; IC50 [49]: 0.224 µM; IC50 [50]: 0.354 µM; IC50 [51]: 0.291 µM; IC50 [52]: 0.221 µM; IC50 [53]: 0.0691 µM; IC50 [54]: 0.104 µM; IC50 [55]: 1.64 µM; IC50 [56]: 0.249 µM; IC50 [57]: > 2 µM; IC50 [58]: 0.361 µM; IC50 [59]: > 2 µM; IC50 [60]: > 2 µM; IC50 [61]: 0.251 µM; IC50 [62]: 0.389 µM; IC50 [63]: > 2 µM; IC50 [64]: > 2 µM; IC50 [65]: > 2 µM
